“And” between values parts separate entries of the source, which are not always exact repeats. Equal values may be shown once. Read-outs that look alike come from different tables or passages of the source. Square brackets hold non-standard residues; d marks the D form. Peptide text beside a SMILES is read from it.
Legend:
[1] = Plasma stability
[2] = Human liver microsomal stability assay; details: human; for microsomal CLint at 0.5 μM: pH 7.4, HLM CLint(mic), human liver microsomes
[3] = Mouse liver microsomal stability assay; details: CD1, mouse, pH 7.4
[4] = Parallel artificial membrane permeability assay (PAMPA)
[5] = Kinetic solubility; details: 25 °C, kinetic from dmso stock
[6] = molecular target: PL^pro (Severe acute respiratory syndrome coronavirus 2, UniProt P0DTD1); details: 20 μM compound, 5 μM enzyme, average of triplicates with SD
[7] = Chromatographic distribution coefficient (eLogD7.4); details: pH 7.4
[8] = molecular target: SARS-CoV-2 PL^pro (Severe acute respiratory syndrome coronavirus 2, UniProt P0DTD1); type: biochemical
[9] = system: SARS-CoV-2
[10] = system: SARS-CoV-2; test: microbe, parasite or virus in culture
[11] = in vitro; details: human, uninfected HeLa-ACE2 cells
[12] = system: HeLa-ACE2 cells
[13] = female, BALB/c, mouse, 1 h, pH 7.4
[14] = system: uninfected HeLa-ACE2 cells; details: Hela-ACE2 Uninfected Cell Toxicity
[15] = system: HeLa-ACE2 cells; test: cells; details: Homo sapiens
[16] = physchem; details: 25 °C, kinetic from dmso stock
[17] = human, microsomes
[18] = in vitro; details: human, microsomes, pH 7.4
[19] = in vitro; details: CD1, mouse, microsomes, pH 7.4
[20] = physchem; details: pH 7.4
[21] = in vitro; details: PAMPA
[22] = Hela-ACE2 % Positive SARS-CoV-2, curve fit
[23] = Hela-ACE2 CoV-2 Total Cell count, curve fit

COc1ccc(CC(=O)N2CCN([C@@H](C)c3cccc4ccccc34)CC2)cc1 [Compound 8]
plasma stability remaining 60 min ([1]; mouse plasma, 60 min): 84.48%
microsomal CLint at 0.5 μM ([2]; microsomes): 186 µL/min/mg
half-life at 0.5 μM ([2]; microsomes, pH 7.4, HLM T 1/2, human liver microsomes): 14.9 min
half-life at 0.5 μM ([3]; microsomes): 7.97 min
microsomal CLint at 0.5 μM ([3]; microsomes): 348 µL/min/mg
Papp at 5 h, 10 μM [4]: 1.07 ×10⁻⁶ cm/s
solubility kinetic at 24 h ([5]; pH 2, aqueous buffer): > 22.9 µg/mL
solubility kinetic at 24 h ([5]; pH 7.4, aqueous buffer): > 15.8 µg/mL
ΔT m [6]: 0.28 ± 0.05 °C
chromatographic logD [7]: 4.56

NC[C@H]1O[C@H](O[C@H]2[C@H](O)[C@@H](O[C@H]3O[C@H](CO)[C@@H](O)[C@H](N)[C@H]3O)[C@H](N)C[C@@H]2N)[C@H](N)C[C@@H]1O [Tobramycin, reference compound]
inhibition of SARS-CoV-2 PL^pro [8]: ≥ 80%

COc1ccc(CNC(=O)C2CCN(C(C)c3cccc4ccccc34)C2)cc1 (centres unmarked) [Compound 17]
half-life at 2 μM ([1]; female, BALB/c, mouse, plasma, pH 7.4): 770 min
CoV2 Efficacy (delta S0:Sinf) ([9]; HeLa-ACE2): 107.984
Data Mode ([9]; Hela-ACE2 % Positive SARS-CoV-2): decreasing
S0 [9, 22]: 7.984
Sinf [9, 22]: -100
nHill [9, 22]: 2.951
half-life at 0.5 μM ([2]; microsomes, pH 7.4): 21.7 min
microsomal CLint at 0.5 μM ([2]; microsomes): 128 µL/min/mg
half-life at 0.5 μM ([3]; microsomes): 10.3 min
microsomal CLint at 0.5 μM ([3]; microsomes): 270 µL/min/mg
Papp at 5 h, 10 μM [4]: 0.61 ×10⁻⁶ cm/s
EC50 ([10]; Severe acute respiratory syndrome coronavirus 2, HeLa-ACE2, read-out: CoV-2 EC50, HeLa-ACE2, supplement summary): 6.49 µM
AC50 ([10]; Severe acute respiratory syndrome coronavirus 2, HeLa-ACE2, read-out: Log AC50 (converted)): 6.48 µM
EC50 ([10]; Severe acute respiratory syndrome coronavirus 2, HeLa-ACE2, read-out: SARS-CoV-2 EC50, HeLa-ACE2 cells, average of triplicates): 6.4 ± 0.4 µM
inhibition at 9.61 µM ([10]; Severe acute respiratory syndrome coronavirus 2, HeLa-ACE2, read-out: inhibition in the highest concentration tested): > 50%
EC50 ([10]; Severe acute respiratory syndrome coronavirus 2, HeLa-ACE2, read-out: qAC50, Hela-ACE2 % Positive SARS-CoV-2, relation in column qAC50 Mode, unit inferred): 6.48 µM
AC50 at 24 h [11]: 29.6 µM
CC50 at 24 h ([11]; uninfected HeLa-ACE2 CC50, supplement summary): 29.6 µM
CC50 at 24 h ([11]; uninfected HeLa-ACE2 CC50, uninfected HeLa-ACE2 cells, average of triplicates): 29.6 ± 0.2 µM
Data Mode ([12]; Hela-ACE2 CoV-2 Total Cell count): increasing (weakly active)
S0 [12, 23]: -9.971
Sinf [12, 23]: 100
nHill [12, 23]: 1.233
HeLa-ACE2 Total Cell Efficacy (Sinf, note + or -) ([12]; infected HeLa-ACE2 total cell count): 1.233
plasma stability remaining 60 min [13]: 73.01%
Data Mode [14]: decreasing
S0 ([14]; curve fit): -3.377
Sinf ([14]; curve fit): -100
nHill ([14]; curve fit): 2.597
qAC50 ([14]; relation in column qAC50 Mode, unit not given): 2.965e-5
EC50 ([15]; HeLa-ACE2, read-out: HeLa-ACE2 Total cells EC50): > 9.61 µM
AC50 ([15]; HeLa-ACE2, read-out: Log AC50 (converted)): > 9.61 µM
EC50 ([15]; HeLa-ACE2, read-out: qAC50): > 9.61 µM
solubility kinetic at 24 h ([5]; pH 2, aqueous buffer): > 24 µg/mL
solubility kinetic at 24 h ([5]; pH 7.4, aqueous buffer): > 19.9 µg/mL
chromatographic logD [7]: 4.25

C[C@@H](N)C(=O)N[C@H](CCCCN)C(=O)N[C@H](CCCNC(=N)N)C(=O)N[C@H](Cc1c[nH]cn1)C(=O)N[C@H](Cc1c[nH]cn1)C(=O)NCC(=O)N[C@H](Cc1ccc(O)cc1)C(=O)N[C@H](CCCCN)C(=O)N[C@H](CCCNC(=N)N)C(=O)N[C@H](CCCCN)C(=O)N[C@H](Cc1ccccc1)C(=O)N[C@H](Cc1c[nH]cn1)C(N)=O [P-113D] (H-[dA][dK][dR][dH][dH]G[dY][dK][dR][dK][dF][dH]-NH2)
inhibition of SARS-CoV-2 PL^pro ([8]; single dose 10 μM end point screen): ≥ 80%

COc1ccc(CNC(=O)C2CCN([C@@H](C)c3ccccc3)CC2)cc1 [Compound 2]
half-life at 0.5 μM ([2]; liver microsomes, pH 7.4): 114 min
half-life at 0.5 μM ([3]; liver microsomes): 9.25 min
solubility kinetic at 24 h ([16]; pH 2, aqueous buffer): > 22.1 µg/mL
solubility kinetic at 24 h ([16]; pH 7.4, aqueous buffer): > 22 µg/mL
plasma stability remaining 60 min ([13]; 2 μM): 91.46%
metabolic stability (in words) [17]: improved stability
microsomal CLint at 0.5 μM [18]: 24.4 µL/min/mg
microsomal CLint at 0.5 μM [19]: 300 µL/min/mg
chromatographic logD [20]: 3
ΔT m [6]: 1.5 °C and 1.50 ± 0.05 °C
Papp at 5 h, 10 μM [21]: 1.47 ×10⁻⁶ cm/s
